Literature values, collected in article PMC11272821, “Mechanistic safety assessment via multi-omic characterisation of systemic pathway perturbations following in vivo MAT2A inhibition” (Archives of Toxicology, 2024).

Set-up: method as in Agios Pharmaceuticals, AACR-NCI-EORTC 2019
Conditions: ref Agios Pharmaceuticals, AACR-NCI-EORTC 2019, cited from earlier work

## COc1ccc(-c2c(Nc3ccccn3)[nH]c3c(C4=CCCCC4)c(-c4ccccc4)nn3c2=O)cc1 [AG-270]
Proposed result of UGT1A1 inhibition
  adverse finding in Phase 1 clinical trial: hyperbilirubinemia
  dose limiting toxicity in Phase 1 clinical trial: reversible, acute liver injury
